Laboratory results taken from patent publication US11447484B2, “Cyclic compound having dopamine D3 receptor antagonistic effect” (Shionogi & Co., Ltd., priority 2018, dated 2022).

Key:
[1] = target: human recombinant D3 receptor (Homo sapiens (Human), UniProt P35462); test: Test of binding inhibition for dopamine D3 receptor; details: Jump-In HEK cell membranes, 2 nM [3H]-Methylspiperone, 120 min at 25° C.; read-out: hD3_Ki
Protocol: Test Example 1: Test of Binding Inhibition for Dopamine D3 Receptor
(§1) (Experimental Conditions)
Cell membranes: Jump-In HEK cell membranes expressing human recombinant D3 receptor (4 μg/well)
(§2) Buffer solution: 50 mM Tris-HCl (35409-45, Nacalai Tesque) (pH 7.4) containing 120 mM NaCl (31320-05, Nacalai Tesque), 1 mM MgCl2.6H2O (20909-55, Nacalai Tesque), 5 mM KCl (28514-75, Nacalai Tesque) and 2 mM CaCl2 (067-31, NAKARAI CHEMICALS, LTD.)
Radioligand: (final concentration) 2 nM [^3H]-Methylspiperone ([^3H—N-methyl-]-Methylspiperone, NET-856, 83.8 Ci/mmol, PerkinElmer)
Non-specific ligand: (final concentration) 10 μM Butaclamol [(+)-Butaclamol Hydrochloride, D033, Sigma]
(§3) SPA beads solution: SPA beads [WGA PVT SPA Scintillation Beads, RPNQ0001 (500 mg), RPNQ0060 (2 g), PerkinElmer] (0.2 mg/well)
(§4) Incubation time and temperature: 120 min at 25° C.
(§5) Butaclamol or the compounds of the present invention were weighed and DMSO was added to make a 10 mM solution. This solution was diluted to each concentration.
[^3H]-Methylspiperone was weighed and the buffer solution was added to make a 6 nM solution.
(§6) SPA beads were weighed and stirred in water to make a 50 mg/mL solution. Using this solution, a mixture with the cell membranes was prepared.
(§7) 225 nL of the solutions of the non-specific ligand or the compounds of the present invention at each concentration (in case of vehicle, final concentration 0.3% DMSO) were added in each well of a 384-well white/clear bottom microplate (3706, Corning). Jump-In HEK Cell membranes (final reaction amount: 4 μg protein/well), the SPA beads solution (final reaction amount: 0.2 mg/well) and the buffer solution were mixed and the mixed solution was left still for 1 hour or more at 4° C. Then, 50 μL of the mixture was added to each well of the plate. In addition, 25 μL of 6 nM [^3H]-Methylspiperone (final concentration: 2 nM) was added to each well. The plate was sealed by putting TopSeal-A 96/384 well (6050185, PerkinElmer, Inc.) on the top of the plate, mixed using stirring deaerator (Well Tornado, FK-62, Sakaki-elc.) and incubated for 120 min at 25° C. After incubation, the radioactivity of [^3H]-Methylspiperone which was bonded to D3 receptor was determined by liquid scintillation counter (1450 Microbeta, PerkinElmer) in each well. Non-specific binding was calculated based on the radioactivity of [^3H]-Methylspiperone in the presence of 10 μM non-labeled Butaclamol. The total binding was calculated using the radioactivity of [^3H]-Methylspiperone in the absence of the compounds of the present invention (vehicle). The Ki values were calculated from dose-response curves.
(§8) Binding activities of the compounds of the present invention were calculated from the following Binding Inhibition Rate (%): Inhibition Rate(%)=[1−(c−a)/(b−a)]×100 • a: Average cpm of non-specific binding • b: Average cpm of total binding • c: Cpm in the presence of each test compound

[2] = target: human recombinant D2 receptor (Homo sapiens (Human), UniProt P14416); test: Test of binding inhibition for dopamine D2 receptor; details: Jump-In HEK cell membranes, 1.2 nM [3H]-Methylspiperone, 120 min at 25° C.; read-out: hD2_Ki
Protocol: Test Example 2: Test of Binding Inhibition for Dopamine D2 Receptor
as §1
Cell membranes: Jump-In HEK cell membranes expressing human recombinant D2 receptor (2 μg/well)
as §2
Radioligand: (final concentration) 1.2 nM [^3H]-Methylspiperone ([^3H—N-methyl-]-Methylspiperone, NET-856, 83.8 Ci/mmol, PerkinElmer)
Non-specific ligand: (final concentration) 10 μM Butaclamol [(+)-Butaclamol Hydrochloride, D033; Sigma]
as §3, §4, §5
[^3H]-Methylspiperone was weighed and the buffer solution was added to make a 3.6 nM solution.
as §6
as §7, with “amount: 2” for “amount: 4”, “SPA bead” for “SPA beads”, “of 3.6” for “of 6”, “concentration: 1.2” for “concentration: 2”, “(6050185, PerkinElmer)” for “(6050185, PerkinElmer, Inc.)”, “to D2” for “to D3”
as §8

[3] = target: P-gp (human MDR1-expressing cells) (Homo sapiens (Human), UniProt P08183); test: P-gp substrate test; format: in vitro ADME; details: efflux ratio (B→A/A→B) of MDR1-expressing cells compared with parent cells, Transwell monolayer
Protocol: Test Example 14: P-gp Substrate Test
The compound of the present invention was added to one side of Transwell (registered trademark, CORNING) where human MDR1-expressing cells or parent cells have been monolayer-cultured. The cells were reacted for a constant time. The membrane permeability coefficients from the apical side toward the basolateral side (A→B) and from the basolateral side toward the apical side (B→A) were calculated for the MDR1-expressing cells or the parent cells, and the efflux ratio (ER; ratio of the membrane permeability coefficients of B→A and A→B) values of the MDR1-expressing cells and the parent cells were calculated. The efflux ratio (ER) values of the MDR1-expressing cells and the parent cells were compared to confirm whether or not the compound of the present invention would be a P-gp substrate.

P-gp (human MDR1-expressing cells), sequence (P08183 whole entry): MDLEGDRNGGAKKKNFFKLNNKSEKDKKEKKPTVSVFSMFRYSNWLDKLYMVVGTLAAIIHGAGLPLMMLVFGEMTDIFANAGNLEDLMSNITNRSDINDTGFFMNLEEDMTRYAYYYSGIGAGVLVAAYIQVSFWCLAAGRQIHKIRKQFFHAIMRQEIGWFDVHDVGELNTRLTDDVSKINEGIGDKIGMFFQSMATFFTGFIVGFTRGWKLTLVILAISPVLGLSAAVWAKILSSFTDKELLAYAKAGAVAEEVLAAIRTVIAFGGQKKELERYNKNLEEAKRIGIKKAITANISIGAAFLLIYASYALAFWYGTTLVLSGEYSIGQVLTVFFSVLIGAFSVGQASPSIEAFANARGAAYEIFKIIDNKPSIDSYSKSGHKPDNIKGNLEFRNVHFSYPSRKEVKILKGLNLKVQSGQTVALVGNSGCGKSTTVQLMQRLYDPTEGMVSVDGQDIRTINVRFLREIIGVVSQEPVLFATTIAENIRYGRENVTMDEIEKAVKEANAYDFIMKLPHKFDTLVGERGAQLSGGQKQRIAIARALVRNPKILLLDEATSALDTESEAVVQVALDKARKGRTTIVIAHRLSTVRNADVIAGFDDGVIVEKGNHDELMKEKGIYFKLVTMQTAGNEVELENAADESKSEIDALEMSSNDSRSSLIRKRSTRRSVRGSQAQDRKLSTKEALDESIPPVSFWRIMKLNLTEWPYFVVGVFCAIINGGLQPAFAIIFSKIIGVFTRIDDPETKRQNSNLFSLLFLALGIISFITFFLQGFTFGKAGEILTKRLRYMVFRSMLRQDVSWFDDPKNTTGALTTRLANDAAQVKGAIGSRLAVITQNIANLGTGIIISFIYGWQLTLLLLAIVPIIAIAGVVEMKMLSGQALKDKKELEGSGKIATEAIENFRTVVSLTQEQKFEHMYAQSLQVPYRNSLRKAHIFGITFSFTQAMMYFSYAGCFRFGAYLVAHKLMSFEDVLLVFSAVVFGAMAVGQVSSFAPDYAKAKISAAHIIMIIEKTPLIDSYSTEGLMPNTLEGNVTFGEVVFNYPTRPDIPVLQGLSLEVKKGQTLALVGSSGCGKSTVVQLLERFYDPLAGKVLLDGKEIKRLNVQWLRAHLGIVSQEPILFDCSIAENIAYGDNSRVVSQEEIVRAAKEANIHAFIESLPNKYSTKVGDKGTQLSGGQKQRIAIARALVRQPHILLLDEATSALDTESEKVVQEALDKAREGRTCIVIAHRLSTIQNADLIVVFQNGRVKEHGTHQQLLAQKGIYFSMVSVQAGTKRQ
human recombinant D2 receptor, sequence (P14416 whole entry): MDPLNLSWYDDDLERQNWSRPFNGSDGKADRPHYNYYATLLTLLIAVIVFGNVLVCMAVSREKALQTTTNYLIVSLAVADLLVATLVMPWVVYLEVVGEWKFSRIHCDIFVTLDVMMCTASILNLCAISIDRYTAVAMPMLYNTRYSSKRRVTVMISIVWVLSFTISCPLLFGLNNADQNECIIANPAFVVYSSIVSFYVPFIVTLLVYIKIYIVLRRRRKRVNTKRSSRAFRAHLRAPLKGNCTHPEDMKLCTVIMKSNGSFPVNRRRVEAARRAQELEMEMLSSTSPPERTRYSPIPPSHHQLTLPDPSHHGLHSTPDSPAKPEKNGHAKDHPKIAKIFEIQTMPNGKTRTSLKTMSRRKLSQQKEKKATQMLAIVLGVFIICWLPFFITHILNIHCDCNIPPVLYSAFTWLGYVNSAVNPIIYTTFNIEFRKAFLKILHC
human recombinant D3 receptor, sequence (P35462 whole entry): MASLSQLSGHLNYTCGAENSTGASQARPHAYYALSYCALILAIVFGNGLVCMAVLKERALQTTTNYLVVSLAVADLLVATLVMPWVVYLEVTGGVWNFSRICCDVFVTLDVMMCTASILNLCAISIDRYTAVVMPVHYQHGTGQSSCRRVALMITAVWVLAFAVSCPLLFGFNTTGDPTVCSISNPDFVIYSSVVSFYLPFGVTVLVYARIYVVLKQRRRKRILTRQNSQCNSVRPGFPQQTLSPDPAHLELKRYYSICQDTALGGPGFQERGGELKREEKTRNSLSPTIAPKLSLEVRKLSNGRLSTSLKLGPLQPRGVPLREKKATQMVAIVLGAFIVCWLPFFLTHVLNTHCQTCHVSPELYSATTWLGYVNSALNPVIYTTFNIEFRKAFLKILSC

Ki [1] [nM] | Ki [2] [nM] | P-gp ER ratio [3] | SMILES
0.71 | 730 | 1.3 | CCc1cc(C23CC2CN(CC[C@H]2CC[C@H](NC(=O)c4cccc5nn(C)cc45)CC2)C3)no1 (stereo partly drawn) [Compound I-034]
0.2 | 330 | 1.9 | Cc1ncc(OCC(=O)N[C@H]2CC[C@H](CCN3C[C@@H]4C[C@]4(c4cc(C(C)(F)F)on4)C3)CC2)cn1 [Compound I-046]
0.58 | 920 | 2.4 | CCc1cc([C@]23C[C@H]2CN(CC[C@H]2CC[C@H](NC(=O)Cc4cnc(C)o4)CC2)C3)no1 [Compound I-052]
0.48 | 1100 | 1.9 | CCc1cc([C@]23C[C@H]2CN(CC[C@H]2CC[C@H](NC(=O)Cc4cnn(C)n4)CC2)C3)no1 [Compound I-053]
